The results in this text go back to patent US20230064983A1 (priority 2020, published 2023).

Broadly, the pIC50 is the negative decadic logarithm of the IC50, by convention in mol/L.

pIC50: −log10 of the molar value. Some results are limits rather than exact numbers.

Holding throughout (assay type): cell-based
Assay [1] has as its target Ba/F3-ERBB2-A775_G776insYVMA cells (Homo sapiens, UniProt P04626, DUP772-775, cells depend on it). The experiment in a line: Ba/F3 cell survival assay, ERBB2 A775_G776insYVMA. The note with it: Table 9; read-out: BA/F3 (ERBB2 A775_G776 insYVMA) IC50.
For assay [2], the target named is Ba/F3-EGFR-N771_P772insH cells (Homo sapiens, UniProt P00533, INS771H, cells depend on it). The experiment in a line: Ba/F3 cell survival assay, EGFR N771_P772insH. The note with it: EGFR Exon20 insertion mutations; Table 6; read-out: BA/F3 (EGFR N771_P772insH) IC50.
Chain of Ba/F3-EGFR-N771_P772insH cells (P00533 with tags, fused parts or gaps INS771H): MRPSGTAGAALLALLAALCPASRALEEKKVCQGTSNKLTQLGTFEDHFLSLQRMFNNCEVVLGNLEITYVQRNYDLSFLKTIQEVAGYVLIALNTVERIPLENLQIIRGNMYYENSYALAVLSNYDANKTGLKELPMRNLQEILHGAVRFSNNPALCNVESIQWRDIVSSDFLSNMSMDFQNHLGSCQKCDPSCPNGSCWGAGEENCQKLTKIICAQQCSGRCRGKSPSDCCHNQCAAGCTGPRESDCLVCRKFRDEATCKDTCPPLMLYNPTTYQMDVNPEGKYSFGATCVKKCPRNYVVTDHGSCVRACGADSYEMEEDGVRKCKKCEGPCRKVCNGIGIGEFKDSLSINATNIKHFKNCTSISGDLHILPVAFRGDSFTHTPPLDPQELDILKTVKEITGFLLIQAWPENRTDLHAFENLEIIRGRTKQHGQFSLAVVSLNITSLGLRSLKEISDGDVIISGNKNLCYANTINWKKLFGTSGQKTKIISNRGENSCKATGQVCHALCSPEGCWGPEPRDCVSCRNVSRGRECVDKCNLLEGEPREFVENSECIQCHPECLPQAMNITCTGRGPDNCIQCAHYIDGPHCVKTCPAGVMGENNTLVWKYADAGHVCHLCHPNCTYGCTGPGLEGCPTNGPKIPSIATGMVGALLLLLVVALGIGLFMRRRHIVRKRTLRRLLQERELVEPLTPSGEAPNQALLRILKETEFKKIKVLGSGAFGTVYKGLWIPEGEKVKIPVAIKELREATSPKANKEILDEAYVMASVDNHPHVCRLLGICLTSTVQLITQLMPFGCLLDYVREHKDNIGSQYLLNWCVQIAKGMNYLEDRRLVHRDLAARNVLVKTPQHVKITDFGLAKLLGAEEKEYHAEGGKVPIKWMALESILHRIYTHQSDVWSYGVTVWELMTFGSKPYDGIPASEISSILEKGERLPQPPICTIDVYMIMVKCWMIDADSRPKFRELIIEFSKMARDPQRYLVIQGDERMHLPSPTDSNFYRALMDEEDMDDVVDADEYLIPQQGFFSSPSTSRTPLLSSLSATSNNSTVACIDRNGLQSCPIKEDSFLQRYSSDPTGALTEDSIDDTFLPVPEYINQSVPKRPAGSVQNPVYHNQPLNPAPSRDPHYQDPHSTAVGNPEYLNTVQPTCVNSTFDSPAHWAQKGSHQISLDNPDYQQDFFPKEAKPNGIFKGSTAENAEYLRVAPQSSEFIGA
The test system of another assay is HCC-827 cells. The experiment in a line: HCC-827 cell proliferation assay (EGFRex19del). The note with it: Homo sapiens, HCC827, 72 h, read-out: HCC-827 IC50. As to the method: Cellular Data Description (HCC-827 cells, EGFRex19del)
(§1) HCC-827 cells were purchased from ATCC. 400 HCC-829 cells per well were seeded in growth medium (RPM11640, 10% FCS) in a 384-well plate (CORNING #3571). Seed reference plate for time zero determination on the same day. All plates were incubated overnight at 37° C. After 24 hours, test compound were added in 7-step dilution using HP Compound printer and incubated at 37° C. for 72 h. After 3 days, 30 μL/well CTG solution (Promega Cell Titer Glo solution; catalog #G755B and G756B) were added to each well, incubated for 30 minutes and the plate were read on PheraStar. Proliferation is calculated after subtracting time zero luminescence values from day 4 values and comparing to untreated wells.
(§2) The IC50 values were determined using the four parameter fit.

The test system of a further assay is PC9 cells. The experiment in a line: PC9 cell proliferation assay (EGFRex19del). The note with it: Homo sapiens, PC-9, 72 h, read-out: PC9 IC50. As to the method:
Cellular Data Description (PC9 cells, EGFRex19del)
as §1, with “PC9” for “HCC-827”, “Tokyo Medical College.” for “ATCC.”, “PC9” for “HCC-829”, “(DMEM,” for “(RPM11640,”
as §2

Assay [3] deals with Ba/F3-EGFR-D770_N771insNPG cells (Homo sapiens, UniProt P00533, INS772GNP, cells depend on it). The experiment in a line: Ba/F3 cell survival assay, EGFR D770_N771insNPG. The note with it: EGFR Exon20 insertion mutations; Table 6; read-out: BA/F3 (insNPG) IC50.
For assay [4], the target named is Ba/F3-EGFR-H773_V774insNPH cells (Homo sapiens, UniProt P00533, DUP771-773, cells depend on it). The experiment in a line: Ba/F3 cell survival assay, EGFR H773_V774insNPH. The note with it: EGFR Exon20 insertion mutations; Table 6; read-out: BA/F3 (EGFR H773_774insNPH) IC50.
Assay [5] has as its target Ba/F3-EGFR-E746_A750del C797S cells (Homo sapiens, UniProt P00533, DEL746-750/C797S, cells depend on it). The experiment in a line: Ba/F3 cell survival assay, EGFR E746_A750del C797S. The note with it: aquired resistance space; Table 8; read-out: BA/F3 (EGFR E746_A750del C797S) IC50.
The target of assay [6] is Ba/F3-EGFR-L858R C797S cells (Homo sapiens, UniProt P00533, C797S/L858R, cells depend on it). The experiment in a line: Ba/F3 cell survival assay, EGFR L858R C797S. The note with it: aquired resistance space; Table 8; read-out: BA/F3 (EGFR L858R C797S) IC50.
Chain of Ba/F3-EGFR-L858R C797S cells (P00533 whole entry C797S/L858R): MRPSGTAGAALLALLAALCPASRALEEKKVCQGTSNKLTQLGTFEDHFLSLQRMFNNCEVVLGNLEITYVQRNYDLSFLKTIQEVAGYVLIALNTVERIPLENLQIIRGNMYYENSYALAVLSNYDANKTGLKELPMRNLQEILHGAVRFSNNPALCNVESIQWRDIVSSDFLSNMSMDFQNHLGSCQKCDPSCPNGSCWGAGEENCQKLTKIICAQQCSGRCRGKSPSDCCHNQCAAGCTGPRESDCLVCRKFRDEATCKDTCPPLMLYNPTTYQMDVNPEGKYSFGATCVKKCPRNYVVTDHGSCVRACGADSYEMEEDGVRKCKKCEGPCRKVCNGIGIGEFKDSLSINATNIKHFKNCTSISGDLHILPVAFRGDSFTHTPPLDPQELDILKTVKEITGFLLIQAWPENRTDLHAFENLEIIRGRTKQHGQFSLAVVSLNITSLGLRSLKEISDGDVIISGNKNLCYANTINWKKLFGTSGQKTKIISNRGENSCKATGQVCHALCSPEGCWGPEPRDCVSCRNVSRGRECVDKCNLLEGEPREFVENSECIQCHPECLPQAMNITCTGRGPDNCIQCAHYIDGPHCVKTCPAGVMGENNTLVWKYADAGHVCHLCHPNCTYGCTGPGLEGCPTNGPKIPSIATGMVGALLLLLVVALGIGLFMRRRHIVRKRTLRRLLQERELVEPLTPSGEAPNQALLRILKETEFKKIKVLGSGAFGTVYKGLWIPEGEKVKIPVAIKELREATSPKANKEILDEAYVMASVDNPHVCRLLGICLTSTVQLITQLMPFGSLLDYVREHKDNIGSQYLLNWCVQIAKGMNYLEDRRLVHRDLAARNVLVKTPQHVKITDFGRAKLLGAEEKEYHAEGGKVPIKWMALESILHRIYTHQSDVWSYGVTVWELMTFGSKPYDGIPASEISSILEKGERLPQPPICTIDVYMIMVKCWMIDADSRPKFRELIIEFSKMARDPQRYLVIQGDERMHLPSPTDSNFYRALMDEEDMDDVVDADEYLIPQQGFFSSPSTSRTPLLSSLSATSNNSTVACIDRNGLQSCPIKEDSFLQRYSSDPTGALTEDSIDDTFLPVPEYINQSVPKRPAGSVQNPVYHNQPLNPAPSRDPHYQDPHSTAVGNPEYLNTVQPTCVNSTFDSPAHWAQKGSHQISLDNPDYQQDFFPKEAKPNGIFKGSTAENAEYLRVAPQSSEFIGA
Assay [7] addresses Ba/F3-EGFR-E746_A750del cells (Homo sapiens, UniProt P00533, DEL746-750, cells depend on it). The experiment in a line: Ba/F3 cell survival assay, EGFR E746_A750del. The note with it: classical activating and rare EGFR mutations; Table 7; read-out: BA/F3 (EGFR E746_A750del) IC50.
A further assay deals with Ba/F3-EGFR-WT cells (Homo sapiens, UniProt P00533). The experiment in a line: Ba/F3 cell survival assay, wild type EGFR. The note with it: Cell Titer-Glo, 48 h, with 10 ng/mL EGF; Table 4; read-out: BA/F3 (wild type) IC50. (In general: Cellular ATP, detected with luciferase, serves as a proxy for viable cell number.)
Chain of Ba/F3-EGFR-WT cells (P00533 whole entry, looked up, change not shown): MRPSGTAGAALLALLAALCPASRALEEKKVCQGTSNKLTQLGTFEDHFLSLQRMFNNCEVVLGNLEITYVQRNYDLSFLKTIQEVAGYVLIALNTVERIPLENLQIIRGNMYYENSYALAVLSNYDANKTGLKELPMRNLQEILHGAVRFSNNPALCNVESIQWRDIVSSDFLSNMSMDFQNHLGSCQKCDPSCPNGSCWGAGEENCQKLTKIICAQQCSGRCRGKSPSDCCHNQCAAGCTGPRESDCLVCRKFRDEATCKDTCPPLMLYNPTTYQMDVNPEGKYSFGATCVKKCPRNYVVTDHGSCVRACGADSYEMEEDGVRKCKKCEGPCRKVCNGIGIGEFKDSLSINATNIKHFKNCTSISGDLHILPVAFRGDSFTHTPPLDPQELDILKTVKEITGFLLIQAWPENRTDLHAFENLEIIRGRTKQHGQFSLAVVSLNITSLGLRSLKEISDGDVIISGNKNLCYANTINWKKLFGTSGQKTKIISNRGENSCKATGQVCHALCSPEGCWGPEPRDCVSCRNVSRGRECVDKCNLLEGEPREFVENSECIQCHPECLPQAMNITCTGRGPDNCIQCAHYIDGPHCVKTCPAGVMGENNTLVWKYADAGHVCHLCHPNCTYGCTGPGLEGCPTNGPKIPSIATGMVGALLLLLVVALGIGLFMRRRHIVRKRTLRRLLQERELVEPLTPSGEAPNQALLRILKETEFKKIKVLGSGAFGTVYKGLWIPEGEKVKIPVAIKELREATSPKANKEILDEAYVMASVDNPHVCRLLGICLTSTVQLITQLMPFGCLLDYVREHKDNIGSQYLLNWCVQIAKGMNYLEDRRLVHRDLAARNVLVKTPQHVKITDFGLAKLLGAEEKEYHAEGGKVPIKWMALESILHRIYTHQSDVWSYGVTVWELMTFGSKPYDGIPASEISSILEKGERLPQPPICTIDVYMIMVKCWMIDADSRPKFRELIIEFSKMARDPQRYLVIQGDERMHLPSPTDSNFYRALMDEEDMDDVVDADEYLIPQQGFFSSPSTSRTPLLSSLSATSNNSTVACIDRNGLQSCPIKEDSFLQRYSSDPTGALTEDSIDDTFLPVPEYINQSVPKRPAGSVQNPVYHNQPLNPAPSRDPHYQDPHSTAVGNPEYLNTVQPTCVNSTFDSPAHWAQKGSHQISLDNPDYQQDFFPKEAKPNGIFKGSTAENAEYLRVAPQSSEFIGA

Chain of Ba/F3-EGFR-E746_A750del cells (P00533 with tags, fused parts or gaps DEL746-750): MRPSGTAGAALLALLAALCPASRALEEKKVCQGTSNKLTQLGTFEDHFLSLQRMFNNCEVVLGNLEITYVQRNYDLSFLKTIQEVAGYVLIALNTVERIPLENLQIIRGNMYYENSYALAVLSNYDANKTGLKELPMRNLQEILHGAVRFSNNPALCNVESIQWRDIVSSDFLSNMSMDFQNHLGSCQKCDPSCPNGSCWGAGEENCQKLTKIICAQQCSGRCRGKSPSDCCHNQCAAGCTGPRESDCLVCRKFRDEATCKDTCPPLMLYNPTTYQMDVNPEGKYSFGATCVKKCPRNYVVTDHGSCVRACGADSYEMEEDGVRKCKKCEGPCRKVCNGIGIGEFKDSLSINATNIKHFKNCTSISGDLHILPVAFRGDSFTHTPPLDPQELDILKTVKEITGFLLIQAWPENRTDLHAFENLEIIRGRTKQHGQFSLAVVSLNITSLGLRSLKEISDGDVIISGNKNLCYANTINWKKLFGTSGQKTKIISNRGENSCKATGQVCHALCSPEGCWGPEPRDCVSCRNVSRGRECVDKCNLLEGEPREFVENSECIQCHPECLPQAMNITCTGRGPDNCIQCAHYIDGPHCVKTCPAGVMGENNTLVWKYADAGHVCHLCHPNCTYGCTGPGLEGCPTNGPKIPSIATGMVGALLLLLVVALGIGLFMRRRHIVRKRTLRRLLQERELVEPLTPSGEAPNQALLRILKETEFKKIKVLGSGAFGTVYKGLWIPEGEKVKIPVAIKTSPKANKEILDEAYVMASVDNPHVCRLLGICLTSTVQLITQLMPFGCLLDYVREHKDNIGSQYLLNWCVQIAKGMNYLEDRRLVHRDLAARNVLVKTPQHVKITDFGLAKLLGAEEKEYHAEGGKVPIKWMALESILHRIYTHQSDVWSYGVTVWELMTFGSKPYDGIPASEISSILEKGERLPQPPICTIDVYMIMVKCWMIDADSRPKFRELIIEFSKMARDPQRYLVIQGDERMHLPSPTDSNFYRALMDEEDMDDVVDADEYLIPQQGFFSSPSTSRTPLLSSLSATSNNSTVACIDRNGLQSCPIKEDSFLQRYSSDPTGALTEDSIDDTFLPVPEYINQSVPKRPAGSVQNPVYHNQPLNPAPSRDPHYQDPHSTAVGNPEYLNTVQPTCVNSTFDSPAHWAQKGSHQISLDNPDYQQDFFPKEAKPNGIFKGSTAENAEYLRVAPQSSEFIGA

As to `COc1c(Cl)cccc1Nc1c(-c2ccncc2OCC2COCCO2)[nH]c2c1C(=O)NCC2C` (single isomer, unassigned) [Example 34, 3-(3-chloro-2-methoxy-anilino)-2-[3-(1,4-dioxan-2-ylmethoxy)-4-pyridyl]-7-methyl-1,5,6,7-tetrahydropyrrolo[3,2-c]pyridin-4-one], the GI50 in assay [1] was 33.1 nM; in assay [2], 14.3 nM; in [3] it was 16.9 nM; in assay [4] it was 165 nM; in assay [5], 0.795 nM; in assay [6], 3.07 nM. In addition, the values for the GI50 (in [7]; on Ba/F3-EGFR-WT cells) were 1.19 nM and 424 nM, respectively. The pIC50 in the assay with HCC-827 cells is above 8.52; in the assay on PC9 cells, 8.46.
Turning to `COCC(C)Oc1cnccc1-c1[nH]c2c(c1Nc1cccc(Cl)c1OC)C(=O)N[C@@H]1CCC[C@H]21` (single isomer, unassigned) [Example 51], the GI50 in assay [1] stood at 15.2 nM; in assay [2], 6.89 nM; in assay [3] it was 11.4 nM; in assay [4], 30.8 nM; in assay [5], 0.564 nM; in [6], 1.32 nM. Also, the GI50 in [7] was found to be 1.05 nM; at Ba/F3-EGFR-WT cells, 412 nM. Moreover, the figures for the pIC50 with HCC-827 cells and with PC9 cells were above 8.52 and 8.76, respectively.
For `Cc1c(Cl)cccc1Nc1c(-c2ccncc2OCC2COCCO2)[nH]c2c1C(=O)NCC2C` (single isomer, unassigned) [Example 67, 3-(3-chloro-2-methyl-anilino)-2-[3-(1,4-dioxan-2-ylmethoxy)-4-pyridyl]-7-methyl-1,5,6,7-tetrahydropyrrolo[3,2-c]pyridin-4-one], the GI50 in [1] was 29.2 nM; in [2], 18.3 nM; in assay [3], 13.5 nM; in [4], 117 nM; in assay [5] it was 0.581 nM; in assay [6], 2.49 nM. Besides, the figures for the GI50 (in assay [7]; at Ba/F3-EGFR-WT cells) were 1.41 nM and 1150 nM, respectively. The figures for the pIC50 in the assay on HCC-827 cells and with PC9 cells were above 8.52 and 8.39, respectively.
For the compound `COc1c(Cl)cccc1Nc1c(-c2ccncc2OCCC2CCCCO2)[nH]c2c1C(=O)N[C@H](C)C2` (single isomer, unassigned) [Example 87], the GI50 in assay [1] worked out at 16.2 nM; in [2], 21.6 nM; in assay [3] it was 15 nM; in assay [4], 138 nM; in [5], 0.804 nM; in assay [6] it was 1.38 nM. Besides, the results for the GI50 (in assay [7]; on Ba/F3-EGFR-WT cells) were 5 nM and 421 nM, respectively. For the same compound, the pIC50 was above 8.52 with HCC-827 cells and 8.74 in the assay on PC9 cells.
As to `COc1c(Cl)cccc1Nc1c(-c2ccncc2OCCC(C)OC)[nH]c2c1C(=O)N[C@H](C)C2` (single isomer, unassigned) [Example 121], the GI50 was 12.8 nM in [1]; 4.49 nM in assay [2]; 12.8 nM in assay [3]; 49.2 nM in assay [4]; 0.384 nM in assay [5]; 1.07 nM in [6]. The GI50 amounted to 0.887 nM in assay [7] and 267 nM on Ba/F3-EGFR-WT cells. For the same compound, the pIC50 is above 8.52 in the assay on HCC-827 cells and 8.74 with PC9 cells.
Consider `COc1c(Cl)cccc1Nc1c(-c2ccncc2OC[C@@H]2CCCO2)[nH]c2c1C(=O)NC1(CC1)C2` [Example 113, 3′-(3-chloro-2-methoxyanilino)-2′-(3-{[(2S)-oxolan-2-yl]methoxy}pyridin-4-yl)-1′,7′-dihydrospiro[cyclopropane-1,6′-pyrrolo[3,2-c]pyridin]-4′(5′H)-one], for which the GI50 was 22.2 nM in [1]; 14.3 nM in assay [2]; 24.9 nM in assay [3]; 116 nM in assay [4]; 1.1 nM in assay [5]; 5.07 nM in [6]. The figures for the GI50 (in [7]; on Ba/F3-EGFR-WT cells) were 0.989 nM and 849 nM, respectively. Moreover, the pIC50 was above 8.52 with HCC-827 cells and 8.19 in the assay on PC9 cells.
